Patent publication US20090062342A1, “AMINES” (Actelion Pharmaceuticals Ltd., priority 2006, published 2009)

Target: T1, recombinant human renin (Homo sapiens, UniProt P00797)
T1 sequence (P00797 67-406): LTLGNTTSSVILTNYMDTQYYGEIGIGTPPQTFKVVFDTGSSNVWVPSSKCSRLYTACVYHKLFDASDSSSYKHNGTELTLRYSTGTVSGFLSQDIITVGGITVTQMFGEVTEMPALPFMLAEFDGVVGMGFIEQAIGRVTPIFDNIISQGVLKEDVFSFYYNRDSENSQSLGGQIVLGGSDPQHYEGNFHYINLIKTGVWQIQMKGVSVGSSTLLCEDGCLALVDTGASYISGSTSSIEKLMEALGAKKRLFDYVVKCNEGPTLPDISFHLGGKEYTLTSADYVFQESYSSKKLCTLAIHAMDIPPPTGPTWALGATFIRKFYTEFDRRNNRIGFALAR
Assay: Primary renin inhibition assay: IC50 in buffer, 384 well MTP (AngI quantified by EIA)
Procedure: Enzyme Immuno Assay (EIA) to Estimate AngI Accumulation and Renin Inhibition
The mixture was incubated overnight at 4° C., then dialyzed against 2 liters of 0.9% NaCl, twice for 4 h at rt, followed by dialysis against 2 liters of PBS 1× overnight at rt. […] The conjugate can be stored in polypropylene tubes in 0.05% sodium azide at 4° C. for at least 12 months.
The AngI (1-10)/BSA coated MTP were washed 3 times with wash buffer (PBS 1×, 0.01% Tween 20) and filled with 75 μl of primary antibody solution (anti-AngI antiserum, pre-diluted 1:10 in horse serum), diluted to a final concentration of 1:100'000 in assay buffer (PBS 1×, 1 mM EDTA, 0.1% BSA, pH 7.4). 5 μl of the renin reaction (or standards in assay buffer) (see below) were added to the primary antibody solution and the plates were incubated overnight at 4° C. […]
In the second step, the accumulated AngI is measured by an immunological assay (enzyme immuno assay, EIA). […]
Test compounds were dissolved and diluted in 100% DMSO and 2.5 μl added to the premix, then incubated at 37° C. for 3 h. At the end of the incubation period, 5 μl of the renin reaction (or standards in assay buffer) were transferred into EIA assays (as described above) and AngI produced by renin was quantified.

IC50: 0.23 nM
Compound: COCCCc1cc(CN(C(=O)[C@H]2CNCC[C@]2(O)c2ccc(OCCOc3c(Cl)cc(C)cc3Cl)nc2)C2CC2)c(Cl)c[n+]1[O-] [Example 7, (3′S,4′R)-6-[2-(2,6-Dichloro-4-methyl-phenoxy)-ethoxy]-4′-hydroxy-1′,2′,3′,4′,5′,6′-hexahydro-[3,4′]bipyridinyl-3′-carboxylic acid [5-chloro-2-(3-methoxy-propyl)-1-oxy-pyridin-4-ylmethyl]-cyclopropyl-amide]
